Where two headings read alike, the source gives them in different places. Values belong to the compound of their own block, whether it stands above or below them.
Assays:
[1] = In vitro stability in human serum (LC/MS/MS); settings: human
Method: Test compound is added to 1.5 mL human serum in a 96-wells deepwell plate in a final concentration of 750 nM. The compound is mixed and immediately thereafter a 100 μl sample is harvested in a 96-wells 2D-tuberack (T=0 sample). The 2 D-tubes are closed with rubber tube caps and the sample plate is stored at −20° CF. in the freezer. The deepwell plate is put into an incubator which was set at humidified (95%) atmosphere at 5-7% CO2 and 37° C. for an incubation period of maximum 240 h. During this incubation period, samples of 100 μl are collected on various time intervals, dependent on the test compound used; time points 0, 1, 2, 3, 6, 24, 48, 72 h in case of Kisspeptides and 0, 3, 6, 24, 48, 72, 168, 240 h in case of kisspeptide-pentasaccharide conjugates. Sample plates are put on ice in case of sampling and stored at −20° C. until analysis by LC/MS/MS.
For LC-MS/MS analysis, the compounds are separated over an XTerra RP8 column and using a gradient mobile phase of ammonium acetate buffer and acetonitrile at a fixed column temperature. MS/MS detection is done with a triple quadrupole mass spectrometer and employing negative ion electrospray ionization. The mass spectrometer is set up to achieve a known degree of in source fragmentation, where the initially formed multiply charged negative ions lose one or more SO3 molecules. The most abundant of these secondary ions are then subjected to a common MS/MS experiment in which a single SO3 loss is monitored. The Q1 and Q3 mass filter settings for this MS/MS experiment have commonly been determined in method development. […] Internal standardization is accomplished by adding a different conjugate of approximately the same size to the bioanalytical samples.
The rate of compound loss is expressed as a half-life (plasma t^1/2). The t^1/2 for the test compound can be determined by plotting the natural logarithm (In) of the measured concentrations against time and fitting the line through all data points. The gradient of this line is the first order rate constant (k) for substrate disappearance and is determined by regression analysis. The rate constant is converted to a half-life according to the following equation: In vitro half-life(t^1/2)=−ln 2/k

human KISS-receptor = target: T1, human KISS-receptor (Homo sapiens, UniProt Q969F8); test: NFAT-regulated luciferase reporter gene assay in CHO-k1 cells, agonist activity; format: cell-based
T1 construct: expressed in transfected cells; host or cells: CHO-k1 cells that also express mitochondrially targeted aequorin, Gα16 and an NFAT-luciferase reporter
T1 sequence (Q969F8 whole entry): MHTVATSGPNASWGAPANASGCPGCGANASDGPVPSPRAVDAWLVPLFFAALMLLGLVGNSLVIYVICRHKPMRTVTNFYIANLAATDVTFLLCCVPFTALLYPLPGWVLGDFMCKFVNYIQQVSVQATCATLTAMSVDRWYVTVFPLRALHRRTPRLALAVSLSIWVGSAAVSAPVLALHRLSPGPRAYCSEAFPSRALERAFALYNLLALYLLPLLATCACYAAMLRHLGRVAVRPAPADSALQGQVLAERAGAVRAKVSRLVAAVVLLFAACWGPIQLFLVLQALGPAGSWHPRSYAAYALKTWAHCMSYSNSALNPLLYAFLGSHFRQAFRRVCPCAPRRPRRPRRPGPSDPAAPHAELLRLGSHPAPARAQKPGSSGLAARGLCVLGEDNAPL

[2] = absence of human serum, read-out: pEC50 (converted)
[3] = presence of 20% human serum, read-out: pEC50 serum (converted)

Compound: CNC(=N)NCCC[C@H](NC(=O)[C@H](CC(C)C)NC(=O)NNC(=O)[C@H](Cc1ccccc1)NC(=O)[C@@H](NC(=O)[C@H](CC(N)=O)NC(=O)[C@H](Cc1c[nH]c2ccccc12)NC(=O)[C@H](CC(N)=O)NC(=O)[C@@H](Cc1ccc(O)cc1)NC(=O)CCOCCOCCOCCOCCn1cc(CCC(=O)NCCOCCOCCOCCO[C@H]2[C@H](OC)[C@@H](OC)[C@@H](O[C@H]3[C@H](OC)[C@@H](OC)[C@H](O[C@H]4[C@H](OS(=O)(=O)O)[C@@H](OS(=O)(=O)O)[C@@H](O[C@H]5[C@H](OC)[C@@H](OC)[C@H](O[C@H]6[C@H](OS(=O)(=O)O)[C@@H](OS(=O)(=O)O)[C@@H](OC)O[C@@H]6COS(=O)(=O)O)O[C@H]5C(=O)O)O[C@@H]4COS(=O)(=O)O)O[C@@H]3C(=O)O)O[C@@H]2COS(=O)(=O)O)nn1)C(C)O)C(=O)N[C@@H](Cc1ccccc1)C(N)=O (some centres unmarked) [Conjugate C11]
half-life at 750 nM [1]: > 240 h

Compound: CNC(=N)NCCC[C@H](NC(=O)[C@H](CC(C)C)n1cc(CNC(=O)[C@H](Cc2ccccc2)NC(=O)[C@@H](NC(=O)[C@H](CC(N)=O)NC(=O)[C@H](Cc2c[nH]c3ccccc23)NC(=O)[C@H](CC(N)=O)NC(=O)[C@@H](Cc2ccc(O)cc2)NC(=O)CCCCn2cc(CCC(=O)NCCOCCOCCOCCO[C@H]3[C@H](OC)[C@@H](OC)[C@@H](O[C@H]4[C@H](OC)[C@@H](OC)[C@H](O[C@H]5[C@H](OS(=O)(=O)O)[C@@H](OS(=O)(=O)O)[C@@H](O[C@H]6[C@H](OC)[C@@H](OC)[C@H](O[C@H]7[C@H](OC)[C@@H](OS(=O)(=O)O)[C@@H](OC)O[C@@H]7COS(=O)(=O)O)O[C@H]6C(=O)O)O[C@@H]5COS(=O)(=O)O)O[C@@H]4C(=O)O)O[C@@H]3COS(=O)(=O)O)nn2)[C@@H](C)O)nn1)C(=O)N[C@@H](Cc1ccccc1)C(N)=O [Conjugate C18]
half-life at 750 nM [1]: 233 h

Compound: CNC(=N)NCCC[C@H](NC(=O)[C@H](CC(C)C)n1cc(CNC(=O)[C@H](Cc2ccccc2)NC(=O)[C@@H](NC(=O)[C@H](CC(N)=O)NC(=O)[C@H](Cc2c[nH]c3ccccc23)NC(=O)[C@H](CC(N)=O)NC(=O)[C@@H](Cc2ccc(O)cc2)NC(=O)CCOCCOCCOCCOCCn2cc(CCC(=O)NCCOCCOCCOCCO[C@H]3[C@H](OC)[C@@H](OC)[C@@H](O[C@H]4[C@H](OC)[C@@H](OC)[C@H](O[C@H]5[C@H](OS(=O)(=O)O)[C@@H](OS(=O)(=O)O)[C@@H](O[C@H]6[C@H](OC)[C@@H](OC)[C@H](O[C@H]7[C@H](OC)[C@@H](OS(=O)(=O)O)[C@@H](OC)O[C@@H]7COS(=O)(=O)O)O[C@H]6C(=O)O)O[C@@H]5COS(=O)(=O)O)O[C@@H]4C(=O)O)O[C@@H]3COS(=O)(=O)O)nn2)[C@@H](C)O)nn1)C(=O)N[C@@H](Cc1ccccc1)C(N)=O [Conjugate C19]
half-life at 750 nM [1]: 175 h

Compound: CNC(=N)NCCC[C@H](NC(=O)[C@H](CC(C)C)n1cc(CNC(=O)[C@H](Cc2ccccc2)NC(=O)[C@@H](NC(=O)[C@H](CC(N)=O)NC(=O)[C@H](Cc2c[nH]c3ccccc23)NC(=O)[C@H](CC(N)=O)NC(=O)[C@@H](Cc2ccc(O)cc2)NC(=O)CCOCCOCCOCCOCCn2cc(CCC(=O)NCCOCCOCCOCCO[C@H]3[C@H](OC)[C@@H](OC)[C@@H](O[C@H]4[C@H](OC)[C@@H](OC)[C@H](O[C@H]5[C@H](OS(=O)(=O)O)[C@@H](OS(=O)(=O)O)[C@@H](O[C@H]6[C@H](OC)[C@@H](OC)[C@H](O[C@H]7[C@H](OS(=O)(=O)O)[C@@H](OS(=O)(=O)O)[C@@H](OC)O[C@@H]7COS(=O)(=O)O)O[C@H]6C(=O)O)O[C@@H]5COS(=O)(=O)O)O[C@@H]4C(=O)O)O[C@@H]3COS(=O)(=O)O)nn2)[C@@H](C)O)nn1)C(=O)N[C@@H](Cc1ccccc1)C(N)=O [Conjugate C20]
half-life at 750 nM [1]: > 240 h

Compound: CNC(=N)NCCC[C@H](NC(=O)[C@H](CC(C)C)NC(=O)NNC(=O)[C@H](Cc1ccccc1)NC(=O)[C@@H](NC(=O)[C@H](CC(N)=O)NC(=O)[C@H](Cc1c[nH]c2ccccc12)NC(=O)[C@H](CC(N)=O)NC(=O)[C@H](Cc1ccc(O)cc1)NC(=O)CCCCn1cc(CCC(=O)NCCOCCOCCOCCO[C@H]2[C@H](OC)[C@@H](OC)[C@@H](O[C@H]3[C@H](OC)[C@@H](OC)[C@H](O[C@H]4[C@H](OS(=O)(=O)O)[C@@H](OS(=O)(=O)O)[C@@H](O[C@H]5[C@H](OC)[C@@H](OC)[C@H](O[C@H]6[C@H](OS(=O)(=O)O)[C@@H](OS(=O)(=O)O)[C@@H](OC)O[C@@H]6COS(=O)(=O)O)O[C@H]5C(=O)O)O[C@@H]4COS(=O)(=O)O)O[C@@H]3C(=O)O)O[C@@H]2COS(=O)(=O)O)nn1)[C@@H](C)O)C(=O)N[C@@H](Cc1ccccc1)C(N)=O [Conjugate C22]
half-life at 750 nM [1]: > 240 h

EC50 (human KISS-receptor; [2]): 0.0427 nM | EC50 (human KISS-receptor; [3]): 0.316 nM
Compound: CO[C@H]1O[C@H](COS(=O)(=O)O)[C@@H](O[C@@H]2O[C@@H](C(=O)O)[C@@H](O[C@H]3O[C@H](COS(=O)(=O)O)[C@@H](O[C@@H]4O[C@H](C(=O)O)[C@@H](O[C@H]5O[C@H](COS(=O)(=O)O)[C@@H](OCCOCCOCCOCCNC(=O)CCc6cn(CCCCC(=O)N[C@H](Cc7ccc(O)cc7)C(=O)N7C[C@H](O)C[C@H]7C(=O)N[C@@H](CC(N)=O)C(=O)N[C@H](C(=O)N[C@@H](Cc7ccccc7)C(=O)NCC(=O)N[C@@H](CC(C)C)C(=O)N[C@@H](CCCNC(=N)N)C(=O)N[C@@H](Cc7c[nH]c8ccccc78)C(N)=O)[C@@H](C)O)nn6)[C@H](OC)[C@H]5OC)[C@H](OC)[C@H]4OC)[C@H](OS(=O)(=O)O)[C@H]3OS(=O)(=O)O)[C@H](OC)[C@H]2OC)[C@H](OC)[C@H]1OS(=O)(=O)O [Conjugate C38]

EC50 (human KISS-receptor; [2]): 0.0646 nM | EC50 (human KISS-receptor; [3]): 2.69 nM
Compound: CO[C@H]1O[C@H](COS(=O)(=O)O)[C@@H](O[C@@H]2O[C@@H](C(=O)O)[C@@H](O[C@H]3O[C@H](COS(=O)(=O)O)[C@@H](O[C@@H]4O[C@H](C(=O)O)[C@@H](O[C@H]5O[C@H](COS(=O)(=O)O)[C@@H](OCCOCCOCCOCCNC(=O)CCc6cn(CCCCC(=O)N[C@H](Cc7ccc(O)cc7)C(=O)N7C[C@H](O)C[C@H]7C(=O)N[C@@H](CC(N)=O)C(=O)N[C@H](C(=O)N[C@@H](Cc7ccccc7)C(=O)NCC(=O)N[C@@H](CC(C)C)C(=O)N[C@@H](CCCNC(=N)N)C(=O)N[C@@H](Cc7c[nH]c8ccccc78)C(N)=O)[C@@H](C)O)nn6)[C@H](OC)[C@H]5OC)[C@H](OC)[C@H]4OC)[C@H](OS(=O)(=O)O)[C@H]3OS(=O)(=O)O)[C@H](OC)[C@H]2OC)[C@H](OS(=O)(=O)O)[C@H]1OS(=O)(=O)O [Conjugate C39]

Compound: CO[C@H]1O[C@H](COS(=O)(=O)O)[C@@H](O[C@@H]2O[C@@H](C(=O)O)[C@@H](O[C@H]3O[C@H](COS(=O)(=O)O)[C@@H](O[C@@H]4O[C@H](C(=O)O)[C@@H](O[C@H]5O[C@H](COS(=O)(=O)O)[C@@H](OCCOCCOCCOCCNC(=O)CCc6cn(CCOCCOCCOCCOCCC(=O)N[C@@H](Cc7ccc(O)cc7)C(=O)N7C[C@H](O)C[C@H]7C(=O)N[C@@H](CC(N)=O)C(=O)N[C@H](C(=O)N[C@@H](Cc7ccccc7)C(=O)NNC(=O)N[C@@H](CC(C)C)C(=O)N[C@@H](CCCNC(=N)N)C(=O)N[C@@H](Cc7c[nH]c8ccccc78)C(N)=O)[C@@H](C)O)nn6)[C@H](OC)[C@H]5OC)[C@H](OC)[C@H]4OC)[C@H](OS(=O)(=O)O)[C@H]3OS(=O)(=O)O)[C@H](OC)[C@H]2OC)[C@H](OC)[C@H]1OS(=O)(=O)O [Conjugate C40]
EC50 (human KISS-receptor; pEC50, absence of human serum): 0.347 nM | EC50 (human KISS-receptor; pEC50 serum, presence of 20% human serum): 1.66 nM

From patent US9127038B2, “Kisspeptide-pentasaccharide conjugates” (Merck Sharp & Dohme Corp., priority 2011, dated 2015)
